The results in this text go back to US11332476B2, “Fms-like tyrosine kinase inhibitors” (3SM BIOTRON INC., priority 2018, dated 2022).

As a reminder, the IC50 is the concentration needed to halve the response being measured. A high value points to weaker potency.

This assay deals with T1, FLT3 (Homo sapiens, UniProt P36888).
T1 sequence (P36888 27-993): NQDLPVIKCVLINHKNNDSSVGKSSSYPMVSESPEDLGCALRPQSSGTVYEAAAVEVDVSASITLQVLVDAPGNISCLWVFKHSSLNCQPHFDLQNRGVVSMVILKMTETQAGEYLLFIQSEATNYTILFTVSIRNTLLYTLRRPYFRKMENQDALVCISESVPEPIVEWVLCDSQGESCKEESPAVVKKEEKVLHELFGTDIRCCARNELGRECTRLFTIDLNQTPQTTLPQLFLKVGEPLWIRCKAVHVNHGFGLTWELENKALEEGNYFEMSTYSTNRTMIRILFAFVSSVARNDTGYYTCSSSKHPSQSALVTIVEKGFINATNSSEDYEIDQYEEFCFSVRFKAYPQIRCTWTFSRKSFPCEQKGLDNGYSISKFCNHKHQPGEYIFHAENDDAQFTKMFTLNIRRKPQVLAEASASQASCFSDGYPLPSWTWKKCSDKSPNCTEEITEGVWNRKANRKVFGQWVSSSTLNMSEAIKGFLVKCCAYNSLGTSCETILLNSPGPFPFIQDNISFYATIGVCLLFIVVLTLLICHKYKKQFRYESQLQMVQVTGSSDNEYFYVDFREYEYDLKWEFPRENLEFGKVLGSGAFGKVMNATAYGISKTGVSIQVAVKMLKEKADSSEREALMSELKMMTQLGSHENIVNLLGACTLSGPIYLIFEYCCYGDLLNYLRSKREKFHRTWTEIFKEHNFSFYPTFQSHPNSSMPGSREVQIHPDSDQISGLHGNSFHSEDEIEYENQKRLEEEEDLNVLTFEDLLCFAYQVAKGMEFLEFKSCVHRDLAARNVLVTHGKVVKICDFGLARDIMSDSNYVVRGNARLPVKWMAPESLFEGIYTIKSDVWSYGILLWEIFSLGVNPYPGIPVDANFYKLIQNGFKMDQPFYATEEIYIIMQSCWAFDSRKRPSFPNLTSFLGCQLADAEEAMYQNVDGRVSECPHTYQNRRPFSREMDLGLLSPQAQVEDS
In words: Inhibition of FLT3, 33P-ATP kinase assay with filter-binding detection. The assay is classed as biochemical. Particulars: 33P-ATP 10 uM, 2 hours at room temperature, filter-binding method. The procedure:
Prepare indicated substrate in freshly prepared Base Reaction Buffer (20 mM Hepes (pH 7.5), 10 mM MgCl2, 1 mM EGTA, 0.02% Brij35, 0.02 mg/ml BSA, 0.1 mM Na3VO4, 2 mM DTT, 1% DMSO). Deliver any required cofactors to the substrate solution above. Deliver indicated kinase into the substrate solution and gently mix. The testing compounds in DMSO was added into the kinase reaction mixture by Acoustic technology (Echo550; nanoliter range) and incubated for 20 minutes at room temperature. Deliver 33P-ATP (specific activity […]) into the reaction mixture to initiate the reaction. Incubate kinase reaction for 2 hours at room temperature. Reactions are spotted onto P81 ion exchange paper. Detect kinase activity by filter-binding method.
Inhibition of FLT3 with 4-Quinolone Derivatives

In turn, `Nc1nc2ccccc2c2c(=O)c3ccc(Cl)cc3sc12` [compound 7723, 6-Amino-9-chloro-12H-thiochromeno[2,3-c]quinolin-12-one] showed a half-inhibitory concentration (IC50) above 1 µM.

`O=c1c2cc(F)cc(Cl)c2sc2c(NCCCNCCO)nc3ccccc3c12` [compound 7226, 8-chloro-10-fluoro-6-(3-(2-hydroxyethylamino)propylamino)-12H-thiochromeno[2,3-c]quinolin-12-one] gave a 50% inhibitory concentration (IC50) above 1 µM.

`COCCCNc1nc2ccccc2c2c(=O)c3cc(OC)ccc3sc12` [compound 7743, 10-methoxy-6-(3-methoxypropylamino)-12H-thiochromeno[2,3-c]quinolin-12-one] registered an IC50 above 1 µM.

In turn, `O=c1c2cc(F)ccc2sc2c(NCCN3CCCC3)nc3ccccc3c12` [compound 7755, 10-fluoro-6-(2-(pyrrolidin-1-yl)ethylamino)-12H-thiochromeno[2,3-c]quinolin-12-one] gave a half-maximal inhibitory concentration (IC50) of 0.501 to 1 µM.

Molecule `O=c1c2cc(F)ccc2sc2c(NCCN3CCOCC3)nc3ccccc3c12` [compound 7756, 10-fluoro-6-((2-morpholinoethyl)amino)-12H-thiochromeno[2,3-c]quinolin-12-one] showed an IC50 above 1 µM.

`Nc1nc2ccccc2c2c1S(=O)(=O)c1ccc(Cl)cc1C2=O` [compound 7001, 6-Amino-10-chloro-12H-thiochromeno[2,3-c]quinolin-12-one 7,7-dioxide] yielded a 50% inhibitory concentration (IC50) above 1 µM.

`NCCNc1nc2ccccc2c2c(=O)c3cc(F)ccc3sc12` [compound 7754, 6-(2-aminoethylamino)-10-fluoro-12H-thiochromeno[2,3-c]quinolin-12-one] returned a 50% inhibitory concentration (IC50) below 0.051 µM.

`CN(C)CCCNc1nc2ccccc2c2c(=O)c3cc(Cl)ccc3sc12` [compound 7722, 10-chloro-6-(3-(dimethylamino)propylamino)-12H-thiochromeno[2,3-c]quinolin-12-one]: the IC50 is above 1 µM.

`CN1CCN(c2nc3ccccc3c3c(=O)c4cc(F)ccc4sc23)CC1` [compound 7740, 10-fluoro-6-(4-methylpiperazin-1-yl)-12H-thiochromeno[2,3-c]quinolin-12-one]: the half-inhibitory concentration (IC50) was 0.501 to 1 µM.

`O=c1c2cc(Cl)ccc2sc2c(NCCO)nc3ccccc3c12` [compound 7717, 10-chloro-6-(2-hydroxyethylamino)-12H-thiochromeno[2,3-c]quinolin-12-one] yielded an IC50 above 1 µM.

Consider `COc1ccc2sc3c(NCCCNCCO)nc4ccccc4c3c(=O)c2c1` [compound 7712, 6-(3-(2-hydroxyethylamino)propylamino)-10-methoxy-12H-thiochromeno[2,3-c]quinolin-12-one], for which the IC50 fell in the range of 0.501 to 1 µM.

With `NCCNc1nc2ccc(F)cc2c2c(=O)c3cc(F)ccc3sc12` [compound 7422, 6-(2-aminoethylamino)-2,10-difluoro-12H-thiochromeno[2,3-c]quinolin-12-one], the IC50 is above 1 µM.

On to `CCCNc1nc2ccccc2c2c(=O)c3cc(OC)ccc3sc12` [compound 7710, 10-methoxy-6-(propylamino)-12H-thiochromeno[2,3-c]quinolin-12-one], for which the IC50 is above 1 µM.

`O=c1c2cc(C(F)(F)F)ccc2sc2c(NCCCNCCO)nc3ccccc3c12` [compound 7214, 6-(3-(2-hydroxyethylamino)propylamino)-10-trifluoromethyl-12H-thiochromeno[2,3-c]quinolin-12-one] yielded an IC50 above 1 µM.

`CCNc1nc2ccccc2c2c(=O)c3cccc(OC)c3sc12` [compound 7245, 6-(ethylamino)-8-methoxy-12H-thiochromeno[2,3-c]quinolin-12-one] came in with a half-inhibitory concentration (IC50) above 1 µM.

`O=c1c2cc(F)ccc2sc2c(Nc3cccnc3)nc3ccccc3c12` [compound 7761, 10-fluoro-6-(pyridin-3-ylamino)-12H-thiochromeno[2,3-c]quinolin-12-one] had an IC50 above 1 µM.

In the case of `COc1ccc2sc3c(NCCO)nc4ccccc4c3c(=O)c2c1` [compound 7733, 6-(2-Hydroxyethylamino)-10-methoxy-12H-thiochromeno[2,3-c]quinolin-12-one], the half-maximal inhibitory concentration (IC50) is above 1 µM.

Regarding `CCNc1nc2ccccc2c2c(=O)c3cc(C)ccc3sc12` [compound 7232, 6-(ethylamino)-10-methyl-12H-thiochromeno[2,3-c]quinolin-12-one], the IC50 is above 1 µM.

Molecule `COc1cccc2c(=O)c3c(sc12)c(N1CCNCC1)nc1ccccc13` [compound 7247, 8-methoxy-6-(piperazin-1-yl)-12H-thiochromeno[2,3-c]quinolin-12-one] registered a 50% inhibitory concentration (IC50) of 0.051 to 0.2 µM.

Molecule `COCCCNc1nc2ccccc2c2c(=O)c3cc(F)ccc3sc12` [compound 7730, 10-fluoro-6-(3-methoxypropylamino)-12H-thiochromeno[2,3-c]quinolin-12-one] registered an IC50 above 1 µM.

`COc1cccc2c(=O)c3c(sc12)c(NCCCNCCO)nc1ccccc13` [compound 7225, 6-(3-(2-hydroxyethylamino)propylamino)-8-methoxy-12H-thiochromeno[2,3-c]quinolin-12-one] showed an IC50 of 0.201 to 0.5 µM.

The molecule `O=c1c2cc(F)ccc2sc2c(NCCCN3CCCC3)nc3ccccc3c12` [compound 7753, 10-fluoro-6-(3-(pyrrolidin-1-yl)propylamino)-12H-thiochromeno[2,3-c]quinolin-12-one] returned an IC50 above 1 µM.

Consider `COc1ccc2sc3c(NCCCO)nc4ccccc4c3c(=O)c2c1` [compound 7742, 10-methoxy-6-(3-hydroxypropylamino)-12H-thiochromeno[2,3-c]quinolin-12-one], for which the IC50 was above 1 µM.

`O=c1c2cc(F)ccc2sc2c(Nc3ccccn3)nc3ccccc3c12` [compound 7760, 10-fluoro-6-(pyridin-2-ylamino)-12H-thiochromeno[2,3-c]quinolin-12-one] registered an IC50 above 1 µM.

`O=c1c2cc(F)ccc2sc2c(Nc3ccncc3)nc3ccccc3c12` [compound 7763, 10-fluoro-6-(pyridin-4-ylamino)-12H-thiochromeno[2,3-c]quinolin-12-one]: the IC50 is above 1 µM.

As for `NCCNc1nc2ccccc2c2c(=O)c3cc(F)cc(Cl)c3sc12` [compound 7248, 6-(2-aminoethylamino)-8-chloro-10-fluoro-12H-thiochromeno[2,3-c]quinolin-12-one], the 50% inhibitory concentration (IC50) lay in the range of 0.051 to 0.2 µM.

As for `NCCNc1nc2ccccc2c2c(=O)c3cc(F)cc(F)c3sc12` [compound 7254, 6-(2-aminoethylamino)-8,10-difluoro-12H-thiochromeno[2,3-c]quinolin-12-one], the half-maximal inhibitory concentration (IC50) was 0.051 to 0.2 µM.

Take `COc1cccc2c(=O)c3c(sc12)c(NCCCN)nc1ccccc13` [compound 7212, 6-(3-aminopropylamino)-8-methoxy-12H-thiochromeno[2,3-c]quinolin-12-one]: the IC50 was below 0.051 µM.

`O=c1c2cc(Cl)ccc2sc2c(OCCO)nc3ccccc3c12` [compound 7718, 10-chloro-6-(2-hydroxyethoxy)-12H-thiochromeno[2,3-c]quinolin-12-one] came in with an IC50 above 1 µM.

`NCCNc1nc2ccccc2c2c(=O)c3cc(Cl)ccc3sc12` [compound 7767, 6-(2-aminoethylamino)-10-cholor-12H-thiochromeno[2,3-c]quinolin-12-one] showed an IC50 below 0.051 µM.

In turn, `CNCCCNc1nc2ccccc2c2c(=O)c3cc(F)ccc3sc12` [compound 7731, 10-fluoro-6-(3-(methylamino)propylamino)-12H-thiochromeno[2,3-c]quinolin-12-one] registered an IC50 of 0.201 to 0.5 µM.

`O=c1c2cc(F)ccc2sc2c(-n3ccnc3)nc3ccccc3c12` [compound 7766, 10-fluoro-6-(1H-imidazol-1-yl)-12H-thiochromeno[2,3-c]quinolin-12-one] returned a half-inhibitory concentration (IC50) above 1 µM.

`Nc1nc2ccccc2c2c(=O)c3c(Cl)cccc3sc12` [compound 7724, 6-Amino-11-chloro-12H-thiochromeno[2,3-c]quinolin-12-one] displayed a half-inhibitory concentration (IC50) above 1 µM.

For the molecule `NCCCNc1nc2ccc(Cl)cc2c2c(=O)c3cc(F)ccc3sc12` [compound 7403, 6-((3-aminopropyl)amino)-2-chloro-10-fluoro-12H-thiochromeno[2,3-c]quinolin-12-one], the concentration for half-maximal inhibition (IC50) is above 1 µM.
